Laboratory results taken from US6958353B2, “Imidazole derivatives or salts thereof and drugs containing the derivatives or the salts” (Hisamitsu Medical Co., Ltd., priority 2000, dated 2005).

Assays:
[1] = tested on: carrageenan-induced edema; assay: Anti-inflammatory effect 1: effect against carrageenan-induced edema; type: in vivo; conditions: mouse, leg volume 9 days after carrageenan
Description: Anti-inflammatory Effect 1: Effect Against Carrageenan-induced Edema
Male ICR mice (4 weeks old, Japan Charles River Co., Ltd.) were pre-bred in a breeding cage for about one week, and-healthy mice were selected for the test.
(2) Drugs Employed in the Test:
Each test compound was suspended in a 0.5% carboxymethyl cellulose sodium (0.5% CMC-Na solution, product of Wako Pure Chemical Industries, Ltd.) or dissolved in purified water. The suspension or solution was perorally administered at a dose of 0.1 mL/10 g (body weight of each mouse).
λ-Carrageenan (Picnin A, product of Zushi Kagaku) dissolved in physiological saline was used.
The volume of the right rear leg of each mouse was measured by means of a plethysmometer (product of Ugo Basile). Subsequently, a 2% carrageenan solution (0.05 mL) was injected into the foot pad of the leg. Five days after the injection of carrageenan (inflammation-inducing agent), the volume of the leg was measured. The mice were divided into groups, each group containing 8 mice. From the day of division (i.e., 5 days after administration of carrageenan), each test compound was preorally administered once per day for four days. The leg volume was measured before administration of each test compound and on the day after the final administration day (i.e., 9 days after administration of carrageenan). Percent edema and percent inhibition due to the test compound were calculated in accordance with the following equations, respectively. Percent edema (%)=[(leg volume (mL) after inflammation treatment−leg volume (mL) before inflammation treatment)/(leg volume (mL) before inflammation treatment)]×100 Percent inhibition (%)=[percent edema of control group (%)−percent edema of test-compound-administered group (%))/(percent edema of control group (%))]×100

[2] = tested on: RAW 264.7 cells; assay: Effect of inhibiting production of NO in LPS-stimulated RAW 264.7 cells (Griess reagent); type: cell-based, mouse; conditions: compound 2 μg/mL, RAW 264.7 cells stimulated with LPS 25 ng/mL
Procedure: (§1) Effect of Inhibiting Production of NO and IL-6
(§2) Growth of RAW 264.7 cells (mouse macrophage strains) was maintained in an RPMI 1640 medium containing 10% fetal bovine serum (FBS) and an antibiotic (10% FBS/RPMI) under culture conditions of 5% CO2 at 37° C. Upon testing, RAW 264.7 cells were washed with cold Dulbecco's phosphate buffered saline and subsequently removed from the plastic culture bottle by use of EDTA/trypsin. The thus-removed cells were centrifuged-and washed, followed by dilution with 10% FBS/RPMI to 4×10^5/mL. The cell suspension (0.5 mL) was added to each well of a 24-well-plate, and cultured under 5% CO2, at 37° C. for 16 hours. […] The live cells were washed once with 1% FBS/RPMI. Each test compound was diluted with the same medium, to thereby adjust the concentration to a predetermined level, and the liquid containing the test compound was added to the washed cells. […] NO contained in the culture supernatant was quantitated for its stable form (NO2^−) by use of a Griess reagent kit (product of Wako Pure Chemical Industries Ltd.). IL-6 was quantitated by use of an ELISA kit (product of Amersham) in accordance with the manual thereof. […]

[3] = tested on: RAW 264.7 cells; assay: Effect of inhibiting production of IL-6 in LPS-stimulated RAW 264.7 cells (ELISA); type: cell-based; conditions: Mus musculus, RAW264.7, compound at 2 μg/mL, read-out: IL-6 production inhibitory effect Percent inhibition (%)
Procedure: as §1, §2

## [O-][S+](CCOc1ccc(Cn2ccnc2)cc1)c1cnc(-c2ccccc2)c(-c2ccccc2)n1 (stereo not drawn) [Compound 1J, 5-(2-[4-(1H-imidazolylmethyl)phenoxy]ethyl)sulfinyl-2,3-diphenylpyrazine]
[1]; 10 mg/kg perorally once per day for four days
  Percent inhibition (%) of carrageenan-induced edema: 41.2%

## c1ccc(-c2ncc(OCCOc3ccc(Cn4ccnc4)cc3)nc2-c2ccccc2)cc1 [Compound 1A, 5-2-[4-(1H-imidazolylmethyl)phenoxy]ethoxy-2,3-diphenylpyrazine]
[2]; Mus musculus, RAW264.7, read-out: NO production inhibitory effect Percent inhibition (%)
  inhibition at 2 µg/mL: 86%
[3]
  inhibition at 2 µg/mL: 54.6%
[1]; 3 mg/kg perorally once per day for four days
  Percent inhibition (%) of carrageenan-induced edema: 30.5%

## 5-(2-[4-(1H-Imidazolylmethyl)phenoxy]ethyl)sulfanil-2,3-diphenylpyrazine [Compound 1I]
[2]
  NO production inhibitory effect Percent inhibition (%): 62.8%

## COc1ccc2c(c1)c(CC(=O)O)c(C)n2C(=O)c1ccc(Cl)cc1 [Indomethacin]
[1]; 1 mg/kg perorally once per day for four days
  Percent inhibition (%) of carrageenan-induced edema: 23.8%
